This note sets out measurements from ChEMBL document CHEMBL3832077, “DailyMed|setid=dc3d3905-2f08-4b71-b949-53f49fb3ea10 | METRONIDAZOLE- metronidazole tablet|Lake Erie Medical DBA Quality Care Products LLC”.

Data set [1] has as its system Homo sapiens. As to the kind of experiment: (§1) Evaluation of pharmacokinetic parameters for Metronidazole following oral administration of Metronidazole tablets. The class given is ADME, organism-based. Details: dose 250 mg, dose 2000 mg, dose 500 mg, route oral. Conditions: in vivo, po, dosed compound id 31, dosed compound name METRONIDAZOLE, tissue Plasma.
The nature of data set [2]: as §1. Format: ADME, organism-based. Set-up: dose 250 mg, dose 2000 mg, dose 500 mg, route oral. The following applies: human, in vivo, dosed compound id 31, dosed compound name METRONIDAZOLE, tissue Plasma.

As a reminder, the Tmax is the time from dosing to the highest level. `Cc1ncc([N+](=O)[O-])n1CCO` [METRONIDAZOLE]: the CL_renal in data set [1] amounted to 10 mL/min/1.73 m2. Also, the Tmax in data set [2] lay within 1 to 2 h.
